Drawing on publication PMC13004581, “Physical Mechanisms of an Unconventional Green Fluorescent Protein Indicator for Chloride” (The Journal of Physical Chemistry. B, 2026), this text covers Kd for four molecules.

For the assay, the target named is T1, cgreGFP (Clytia gregaria, UniProt D7PM05).
T1 construct: gene GFP2; full-length, N-terminal polyhistidine tag kept (pET-28a(+)-TEV, NdeI/BamHI), codon-optimized gene, expressed in E. coli BL21(DE3)
T1 sequence (D7PM05 1-235): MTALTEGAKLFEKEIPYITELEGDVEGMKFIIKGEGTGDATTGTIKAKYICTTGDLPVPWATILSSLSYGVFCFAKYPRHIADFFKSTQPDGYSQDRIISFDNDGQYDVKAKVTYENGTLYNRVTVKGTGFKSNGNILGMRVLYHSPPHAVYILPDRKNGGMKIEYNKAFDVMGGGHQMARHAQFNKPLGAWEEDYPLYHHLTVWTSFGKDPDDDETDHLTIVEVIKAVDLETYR
The assay is described as follows: fluorescence titration (ex […] nm, em […] nm). The note with it: read-out: K d (apparent). The assay is classed as binding.
On to `Br` [bromide], for which the Kd came to 15.1 ± 1.2 mM.
The figure for `Cl` [chloride] is 25.2 ± 2 mM; for `I` [iodide] it is 5.3 mM.
The figure for `O=[N+]([O-])O` [nitrate] is 10.7 ± 1.2 mM.
